Assay results from patent US20030055065A1, “Tricyclic amide and urea compounds useful for inhibition of G-protein function and for treatment of proliferative diseases” (priority 1993, published 2003).
“And” between values parts separate entries of the source, which are not always exact repeats. Equal entries are not always repeated. Where two headings read alike, the source gives them in different places.

Assays:
[1] = system: T24-BAG4 human bladder carcinoma cells expressing an activated H-ras gene; assay: Cell Mat Assay: tumor cell colony inhibition (tIC50); type: cell-based; conditions: inhibition of tumor cell growth
Summary of the method: (§1)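 Serial compound dilutions added 24 h after planting T24-BAG4 cells onto a mat of normal cells, then 14 d colony growth; monolayers glutaraldehyde-fixed and tumor cells X-Gal stained. tIC50 and mIC50 from microscope counts of colonies, cells per colony and mat cell density.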

[2] = system: Ras-CVLS processing in COS monkey kidney cells; assay: COS cell assay: Ras-CVLS processing (Western blot); type: cell-based; conditions: COS cells; for IC50: read-out: Inhibition of Ras Processing IC50; for Inhibition of Ras Processing at the concentration in parentheses: (5) μM
Summary of the method: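 COS cells electroporated with Ras-CVLS (farnesyl transferase substrate) cDNA, with drug-containing fresh medium added at 24 h and cells examined at 48 h. TCA-precipitated cellular protein was resolved by SDS gel and immunoblotted with anti-p21 Ras monoclonal and HRP anti-rat IgG to monitor Ras processing.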

[3] = system: Normal human HEPM fibroblasts; assay: Cell Mat Assay: density of mat cells (mIC50); type: cell-based
Summary of the method: as §1

[4] = molecular target: T1, geranylgeranyl protein transferase (GGPT) I (Rattus norvegicus, UniProt P53610+Q04631); assay: Inhibition of geranylgeranyl protein transferase I (Ras-CVLL as acceptor); type: biochemical; conditions: for IC50: enzyme inhibition
T1 construct: were partially purified from rat brain by ammonium sulfate fractionation followed by Q-Sepharose
T1 sequence (P53610 whole entry, one chain of several): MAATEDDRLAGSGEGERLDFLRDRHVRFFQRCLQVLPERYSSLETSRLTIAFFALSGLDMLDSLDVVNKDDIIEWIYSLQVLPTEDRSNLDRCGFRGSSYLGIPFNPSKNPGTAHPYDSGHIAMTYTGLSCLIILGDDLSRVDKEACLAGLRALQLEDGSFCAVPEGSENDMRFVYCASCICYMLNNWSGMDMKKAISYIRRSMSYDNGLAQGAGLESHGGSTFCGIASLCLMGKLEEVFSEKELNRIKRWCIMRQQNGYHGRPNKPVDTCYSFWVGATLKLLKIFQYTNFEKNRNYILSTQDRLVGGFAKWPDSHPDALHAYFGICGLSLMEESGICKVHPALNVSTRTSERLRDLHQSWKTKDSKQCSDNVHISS
Source text: 1. In vitro enzyme assays: Inhibition of farnesyl protein transferase and geranylgeranyl protein transferase.
Both farnesyl protein transferase (FPT) and geranylgeranyl protein transferase (GGPT) I were partially purified from rat brain by ammonium sulfate fractionation followed by Q-Sepharose (Pharmacia, Inc.) anion exchange chromatography essentially as described by Yokoyama et al (Yokoyama, K., et al., (1991), A protein geranylgeranyltransferase from bovine brain: Implications for protein prenylation specificity, Proc. Natl. Acad. Sci USA 88: 5302-5306, the disclosure of which is incorporated herein by reference thereto). Human farnesyl protein transferase was also expressed in E. coli, using cDNA clones encoding both the α and β subunits. The methods used were similar to those published (Omer, C. et al., (1993), Characterization of recombinant human farnesyl protein transferase: Cloning, expression, farnesyl diphosphate binding, and functional homology with yeast prenyl-protein transferases, Biochemistry 32:5167-5176). Human farnesyl protein transferase was partially-purified from the soluble protein fraction of E. coli as described above. […] Two forms of val^12-Ha-Ras protein were prepared as substrates for these enzymes, differing in their carboxy terminal sequence. One form terminated in cysteine-valine-leucine-serine (Ras-CVLS) the other in cystein-valine-leucine-leucine (Ras-CVLL). Ras-CVLS is a substrate for the farnesyl protein transferase while Ras-CVLL is a substrate for geranylgeranyl protein transferase I. The cDNAs encoding these proteins were constructed so that the proteins contain an amino-terminal extension of 6 histidine residues. Both proteins were expressed in Escherichia coli and purified using metal chelate affinity chromatography. The radiolabelled isoprenyl pyrophosphate substrates, [^3H]farnesyl pyrophosphate and [3H]geranylgeranyl pyrophosphate, were purchased from DuPont/New England Nuclear.
The geranylgeranyl protein transferase I assay was essentially identical to the farnesyl protein transferase assay described above, with two exceptions: [^3H]geranylgeranylpyrophosphate replaced farnesyl pyrophosphate as the isoprenoid donor and Ras-CVLL was the protein acceptor.

[5] = molecular target: T2, farnesyl protein transferase (FPT), partially purified from rat brain (Rattus norvegicus, UniProt Q02293+Q04631); assay: Inhibition of farnesyl protein transferase (transfer of [3H]farnesyl to Ras-CVLS); type: biochemical; conditions: read-out: FPT IC50
T2 construct: were partially purified from rat brain by ammonium sulfate fractionation followed by Q-Sepharose
T2 sequence (Q02293 whole entry, one chain of several): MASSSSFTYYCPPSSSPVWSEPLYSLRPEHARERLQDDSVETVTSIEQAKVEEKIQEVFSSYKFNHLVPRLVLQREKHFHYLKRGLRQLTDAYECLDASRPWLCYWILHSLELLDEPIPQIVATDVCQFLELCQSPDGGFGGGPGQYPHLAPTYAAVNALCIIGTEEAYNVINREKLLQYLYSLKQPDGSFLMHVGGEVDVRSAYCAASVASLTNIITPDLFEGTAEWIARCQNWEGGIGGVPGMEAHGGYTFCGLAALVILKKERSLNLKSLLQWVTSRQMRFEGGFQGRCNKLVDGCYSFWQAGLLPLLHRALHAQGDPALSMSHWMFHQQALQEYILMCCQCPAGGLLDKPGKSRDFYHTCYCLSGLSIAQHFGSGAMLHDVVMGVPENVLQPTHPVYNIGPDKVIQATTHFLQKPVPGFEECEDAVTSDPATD
Summary of the method: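 Partially purified farnesyl protein transferase with His6-tagged val12-Ha-Ras-CVLS substrate and [3H]farnesyl pyrophosphate, 30 min at room temperature. Stopped with SDS/TCA, precipitated Ras collected on GF/C filters; percent inhibition relative to DMSO vehicle control.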

[6] = Ras-CVLS farnesylation, partially purified rat brain FPT

Row | Structure (SMILES) | IC50 ([1]; Homo sapiens) [µM] | IC50 [4] [µM] | IC50 [5, 6] | IC50 ([2]; Primates, COS) [µM] | IC50 ([3]; Homo sapiens, Fibroblast) [µM] | other results
1 | O=C(Cc1cc[n+]([O-])cc1)N1CCC(C2c3ccc(Cl)cc3CCc3cccnc32)CC1 (centres unmarked) [Example 234] | 3.1 | > 43 | 330 nM | 2.2 | > 50 | –
2 | O=C(Nc1ccncc1)N1CCC(C2c3ccc(Cl)cc3CCc3cccnc32)CC1 (centres unmarked) [Example 314] | 4 | > 46 | 830 nM | 3 | > 50 | –
3 | CCc1cc2c(cc1Cl)C=Cc1cccnc1C2C1CCN(C(=O)Cc2cccnc2)CC1 (centres unmarked) [Example 270] | – | – | 2800 nM | – | – | melting point: 67.2 to 69.8 °C
4 | O=C(Cc1ccncc1)N1CCC(C2c3ccc(Cl)cc3C=Cc3cc(Br)cnc32)CC1 (centres unmarked) [Example 400-G] | 1.6 | > 39 | 24 nM | 0.58 | > 25 | IC50 ([5]; enzyme inhibition): 24 nM
5 | CN1CCC(CC(=O)N2CCC(=C3c4ccc(Cl)cc4CCc4cc(Br)cnc43)CC2)CC1 [Example 400-H] | – | 1000 | 240 nM | 2.5 | – | Inhibition of Ras Processing at the concentration in parentheses [2]: 100 (5); GGPT inhibition at the concentration in parentheses ([4]; (36) μM): 0 (36); IC50 ([5]; enzyme inhibition): 240 nM
6 | O=C(Cc1ccc(Br)cc1)N1CCN(C2c3ccc(Cl)cc3CCc3cccnc32)CC1 (centres unmarked) [Example 77] | – | > 39 | – | – | – | IC50 [1]: > 50 µM; IC50 [2]: 9.2 µM; IC50 [3]: > 50 µM
7 | O=C(Cc1ccncc1)N1CCC(C2c3ccc(Cl)cc3CCc3cc(Br)cnc32)CC1 (centres unmarked) [Example 400-E] | < 1.6 | – | 40 nM | – | 18 | GGPT inhibition at the concentration in parentheses ([4]; (38) μM): 30 (38); IC50 ([5]; enzyme inhibition): 40 nM
8 | O=C(Cc1cc[n+]([O-])cc1)N1CCC(C2c3ccc(Cl)cc3C=Cc3cc(Br)cnc32)CC1 (centres unmarked) [Example 400-C] | < 1.6 | > 38 | 30 nM | 0.7 | > 25 | IC50 ([5]; enzyme inhibition): 30 nM
9 | O=C(Cc1ccc[n+]([O-])c1)N1CCC(C2c3ccc(Cl)cc3C=Cc3cc(Br)cnc32)CC1 (centres unmarked) [Example 400-D] | 4 | > 38 | 210 nM | 2 | > 25 | IC50 ([5]; enzyme inhibition): 210 nM
10 | Cc1cnc2c(c1)CCc1cc(Cl)ccc1C2=C1CCN(C(=O)Cc2cccnc2)CC1 [Example 303] | 8 | > 43 | 550 nM | 3.4 | > 50 | –
11 | CN1CCCC(CC(=O)N2CCC(=C3c4ccc(Cl)cc4CCc4cc(Br)cnc43)CC2)C1 (centres unmarked) [Example 400-K] | – | 1000 | 210 nM | 2.2 | – | Inhibition of Ras Processing at the concentration in parentheses [2]: 100 (5); GGPT inhibition at the concentration in parentheses ([4]; (37) μM): 0 (37); IC50 ([5]; enzyme inhibition): 210 nM
12 | O=C(Cc1cccnc1)N1CCN(C2c3ccc(Cl)cc3CCc3cc(Br)cnc32)CC1 (centres unmarked) [Example 351] | 6.25 | 1000 | 170 nM | 2.8 | 25 | –
13 | O=C(Cc1ccnc(Br)c1)N1CCC(=C2c3ccc(Cl)cc3CCc3cc(Br)cnc32)CC1 [Example 506] | – | – | – | – | – | melting point: 134 to 136.1 °C
14 | O=C(Nc1cccnc1)N1CCN(C2c3ccc(Cl)cc3CCc3cc(Br)cnc32)CC1 (centres unmarked) [Example 354] | 6.25 | 1000 | 210 nM | – | ≥ 25 | –
15 | O=C(CN1CCS(=O)(=O)CC1)N1CCC(=C2c3ccc(Cl)cc3CCc3cc(Br)cnc32)CC1 [Example 410-G] | – | – | 210 nM | 4 | – | GGPT inhibition at the concentration in parentheses ([4]; (33) μM): 32 (33); IC50 ([5]; enzyme inhibition): 210 nM
16 | O=C(Cc1ccncc1)N1CCC(=C2c3ccc(Cl)cc3CCc3cc(Cl)cnc32)CC1 [Example 180] | 12.5 | > 42 | 40 nM | – | 50 | IC50 [1]: 18 µM; IC50 [3]: > 50 µM
17 | O=C(Cc1cc[n+]([O-])cc1)N1CCC(=C2c3ccc(Cl)cc3CCc3cccnc32)CC1 [Example 227] | – | – | – | – | – | melting point: 128 to 130 °C
18 | O=C(Nc1cccnc1)N1CCC(C2c3ccc(Cl)cc3CCc3cccnc32)CC1 (centres unmarked) [Example 313] | 6.25 | > 46 | 970 nM | 1.5 | > 50 | –

Further lines, with some results ahead:

Row | IC50 ([1]; Homo sapiens) [µM] | IC50 [4] [µM] | IC50 [5, 6] | Structure (SMILES) | IC50 ([2]; Primates, COS) [µM] | IC50 ([3]; Homo sapiens, Fibroblast) [µM] | other results
19 | 12.5 | > 40 | 1440 nM and 1400 nM | CC(C)(C(=O)N1CCC(=C2c3ccc(Cl)cc3CCc3cccnc32)CC1)c1ccccc1 [Example 289] | > 10 | > 50 | IC50 [1]: 18 µM
20 | – | – | 2490 nM | O=C(Cc1ccccc1[N+](=O)[O-])C(=O)N1CCC(=C2c3ccc(Cl)cc3CCc3cccnc32)CC1 [Example 220] | – | – | melting point: 282 to 285 °C
21 | – | – | 640 nM | O=C(Cc1ccncc1)N1CCC(=C2c3ccc(Cl)cc3CCc3c(On4nnc5ccccc54)ccnc32)CC1 [Example 249] | – | – | melting point: 98.6 to 101.6 °C
22 | – | > 40 | 720 nM and 5020 nM | CO[C@](C(=O)N1CCC(=C2c3ccc(Cl)cc3CCc3cccnc32)CC1)(c1ccccc1)C(F)(F)F [Example 287] | > 10 | > 50 | –
23 | > 50 | > 35 | 4580 nM | O=C(OC(C(=O)N1CCC(=C2c3ccc(Cl)cc3CCc3cccnc32)CC1)c1ccccc1)c1ccncc1 (centres unmarked) [Example 298] | > 9 | > 50 | –
24 | – | > 41 | – | O=C(Cc1cc[n+]([O-])cc1)N1CCC(=C2c3ccc(Cl)cc3CCc3cccnc32)CC1 [227 (5.102)] | – | – | IC50 [1]: 4 µM; IC50 [2]: 1 µM; IC50 [3]: > 50 µM
25 | 25 | > 43 | 1260 nM | CC(C)(C(=O)N1CCC(C2c3ccc(Cl)cc3CCc3cccnc32)CC1)c1ccccc1 (centres unmarked) [Example 316] | 18.4 | > 50 | –
26 | 6.25 | > 44 | 990 nM | O=C(Nc1cccnc1)N1CCC(=C2c3ccc(Cl)cc3CCc3cccnc32)CC1 [Example 292] | 6.8 | > 50 | –
27 | 12.5 | > 38 | 3800 nM and 2550 nM | CO[C@@](C(=O)N1CCC(=C2c3ccc(Cl)cc3CCc3cccnc32)CC1)(c1ccccc1)C(F)(F)F [Example 290] | – | > 50 | IC50 [1]: 6.25 µM and 8 µM
28 | 1.6 | – | 68 nM | O=C(Cc1ccncc1)N1CCC(=C2c3ccc(Cl)cc3CCc3cc(I)cnc32)CC1 [Example 400] | – | > 25 | GGPT inhibition at the concentration in parentheses ([4]; (36) μM): 29 (36); IC50 ([5]; enzyme inhibition): 68 nM
29 | 10 | 41.3 | 610 nM | O=C(Cc1ccncc1)N1CCC(=C2c3cc(Cl)c(Cl)cc3CCc3cccnc32)CC1 [Example 311] | 9.5 | > 50 | –
30 | 12.5 | > 46 | 900 nM | O=C(Nc1ccccc1)N1CCC(C2c3ccc(Cl)cc3CCc3cccnc32)CC1 (centres unmarked) [Example 312] | 3.8 | > 50 | –
31 | 18 | > 46 | 870 nM | O=C(Nc1ccncc1)N1CCC(=C2c3ccc(Cl)cc3CCc3cccnc32)CC1 [Example 291] | 3.6 | > 50 | –
32 | < 1.6 | 1000 | 63 nM and 80 nM | O=C(Cc1cc[n+]([O-])cc1)N1CCC(=C2c3ccc(Cl)cc3CCc3cc(I)cnc32)CC1 [Example 401] | – | > 25 | GGPT inhibition at the concentration in parentheses ([4]; (34) μM): 7 (34); IC50 ([5]; enzyme inhibition): 63 nM and 80 nM
33 | 12.5 | > 40 | 1760 nM and 470 nM | O=C(Nc1ccccc1)N1CCC(=C2c3ccc(Cl)cc3CCc3cccnc32)CC1 [Example 293] | > 11.1 | > 50 | IC50 [2]: 6.5 µM
